Source: DBAASP
Values after ≈ are worked out from the molar mass of the structure shown. Values belong to the compound of their own block, whether it stands above or below them.

What was measured:
Test in all cases: ≥ marks a high value that may be exact or a test limit, other limits are often not marked, values filed in µg/mL are converted to µM
[1] = test system: Pseudomonas aeruginosa CGMCC 1.860
[2] = test system: Pseudomonas aeruginosa 0108
[3] = test system: Enterococcus faecalis ATCC 29212
[4] = test system: Escherichia coli ATCC 25922
[5] = test system: Candida parapsilosis ATCC 22019
[6] = test system: Escherichia coli IS37#
[7] = test system: Candida albicans ATCC 90028
[8] = test system: Klebsiella pneumoniae ATCC 700603
[9] = test system: Klebsiella pneumoniae IS59#
[10] = test system: Staphylococcus aureus ATCC 25923
[11] = test system: Shigella dysenteriae
[12] = test system: Escherichia coli IS117#
[13] = test system: Enterobacter cloacae ATCC 13047
[14] = test system: Pseudomonas aeruginosa CMCCB 1010
[15] = test system: Candida albicans ATCC 2002
[16] = test system: Escherichia coli IS218#
[17] = test system: Pseudomonas aeruginosa IS350#
[18] = test system: Pseudomonas aeruginosa ATCC 27853
[19] = test system: Staphylococcus aureus IS10#
[20] = test system: Klebsiella pneumoniae DM4299
[21] = test system: Pseudomonas aeruginosa DM23155
[22] = test system: Acinetobacter johnsonii NCDC 0072
[23] = test system: Staphylococcus aureus NCDC 0111
[24] = test system: Bacillus cereus NCDC 0240
[25] = test system: Escherichia coli MTCC 0723
[26] = test system: Salmonella enterica subsp. enterica serovar Typhimurium ATCC 14028
[27] = test system: Pseudomonas aeruginosa NCDC 0105
[28] = test system: Listeria monocytogenes ATCC 19111
[29] = test system: Staphylococcus aureus ATCC 29213
[30] = test system: Streptococcus pyogenes ATCC 19615
[31] = test system: Leishmania infantum (promastigote)
[32] = test system: Listeria ivanovii
[33] = test system: Escherichia coli ML-35p
[34] = test system: Klebsiella pneumoniae ATCC 13883
[35] = test system: Legionella pneumophila ATCC 33155
[36] = test system: Staphylococcus aureus ATCC BAA-44
[37] = test system: Legionella feeleii ATCC 35072
[38] = test system: Staphylococcus aureus ST1065
[39] = test system: Legionella pneumophila Paris
[40] = test system: Staphylococcus aureus ATCC 43300
[41] = test system: Saccharomyces cerevisiae
[42] = test system: Acinetobacter baumannii ATCC 19606
[43] = test system: Salmonella enterica subsp. enterica serovar Enteritidis
[44] = test system: Legionella longbeachae ATCC 33484
[45] = test system: Staphylococcus aureus 68 HER 1049
[46] = test system: Escherichia coli K12 MG1655

- MIC [1]: 3.13 µM (≈ 5.09 µg/mL)
- MIC [2]: 6.25 µM (≈ 10.2 µg/mL)
Structure (SMILES): CC[C@H](C)[C@H](N)C(=O)N[C@@H](CCCCN)C(=O)N[C@@H](CCCCN)C(=O)N[C@@H](Cc1c[nH]c2ccccc12)C(=O)N[C@@H](CC(C)C)C(=O)N[C@@H](CO)C(=O)N[C@@H](CCCCN)C(=O)N[C@H](C(=O)N[C@@H](CCCCN)C(=O)N[C@@H](CCCCN)C(=O)N[C@@H](CC(C)C)C(=O)N[C@@H](CC(C)C)C(=O)N[C@@H](CCCCN)C(N)=O)[C@@H](C)CC [IKKWLSKIKKLLK]

- MIC [3]: 17.9 µM (≈ 20 µg/mL)
- MIC [4]: 8.97 µM (≈ 9.98 µg/mL)
- MIC [5]: 17.9 µM (≈ 20 µg/mL)
- MIC [6]: ≥ 44.8 µM
- MIC [7]: 17.9 µM (≈ 20 µg/mL)
- MIC [8]: 17.9 µM (≈ 20 µg/mL)
- MIC [9]: ≥ 44.8 µM
- MIC [10]: 4.48 µM (≈ 4.99 µg/mL)
- MIC [11]: 17.9 µM (≈ 20 µg/mL)
- MIC [12]: ≥ 44.8 µM
- MIC [13]: 8.97 µM (≈ 9.98 µg/mL)
- MIC [14]: ≥ 44.8 µM
- MIC [15]: 17.9 µM (≈ 20 µg/mL)
Structure (SMILES): C[C@@H](O)[C@@H]1NC(=O)CNC(=O)[C@H](CCCCN)NC(=O)[C@H](Cc2ccccc2)NC(=O)[C@@H](NC(=O)[C@H](Cc2ccccc2)NC(=O)[C@@H](N)CCCN=C(N)N)CSSC[C@@H](C(=O)NCC(=O)O)NC(=O)[C@@H]2CCCN2C1=O [RFCFKGTPCG]

- MIC [3]: 1.91 µM (≈ 5 µg/mL)
- MIC [4]: 1.91 µM (≈ 5 µg/mL)
- MIC [5]: 7.66 µM (≈ 20 µg/mL)
- MIC [6]: 19.1 µM (≈ 50 µg/mL)
- MIC [7]: 3.83 µM (≈ 9.99 µg/mL)
- MIC [8]: 3.83 µM (≈ 9.99 µg/mL)
- MIC [10]: 3.83 µM (≈ 9.99 µg/mL)
- MIC [11]: 3.83 µM (≈ 9.99 µg/mL)
- MIC [16]: 19.1 µM (≈ 50 µg/mL)
- MIC [17]: 19.1 µM (≈ 50 µg/mL)
- MIC [12]: 7.66 µM (≈ 20 µg/mL)
- MIC [13]: 3.83 µM (≈ 9.99 µg/mL)
- MIC [14]: 3.83 µM (≈ 9.99 µg/mL)
- MIC [18]: 7.66 µM (≈ 20 µg/mL)
- MIC [15]: 1.91 µM (≈ 5 µg/mL)
- MIC [19]: 19.1 µM (≈ 50 µg/mL)
Structure (SMILES): CC[C@H](C)[C@H](NC(=O)[C@@H](N)C(C)C)C(=O)N1CCC[C@H]1C(=O)N[C@@H](Cc1ccccc1)C(=O)N[C@H](C(=O)N[C@@H](C)C(=O)N[C@@H](CO)C(=O)N[C@H](C(=O)N[C@@H](C)C(=O)N[C@@H](C)C(=O)N[C@@H](CCC(=O)O)C(=O)N[C@@H](CCSC)C(=O)N[C@@H](CCSC)C(=O)N[C@@H](CCC(N)=O)C(=O)N[C@@H](Cc1cnc[nH]1)C(=O)N[C@H](C(=O)N[C@@H](Cc1ccc(O)cc1)C(=O)N[C@H]1CSSC[C@@H](C(=O)O)NC(=O)[C@H](CCCN=C(N)N)NC(=O)[C@H](CCCCN)NC(=O)[C@H](CO)NC(=O)[C@H](C)NC(=O)[C@H](C)NC1=O)C(C)C)C(C)C)C(C)C [VIPFVASVAAEMMQHVYCAASKRC]

- MIC [20]: 6 µM (≈ 7.95 µg/mL)
- MIC [4]: 6 µM (≈ 7.95 µg/mL)
- MIC [21]: 6 µM (≈ 7.95 µg/mL)
Structure (SMILES): CC(=O)N[C@@H](CCCN=C(N)N)C(=O)NCC(=O)N[C@@H](CCCN=C(N)N)C(=O)N[C@@H](CCCCN)C(=O)N[C@H](C(=O)N[C@H](C(=O)N[C@@H](CCCN=C(N)N)C(=O)N[C@@H](CCCN=C(N)N)C(=O)N[C@@H](CCCCN)C(=O)N[C@@H](CCCCN)C(=O)O)C(C)C)C(C)C [RGRKVVRRKK]

- MIC [22]: ≥ 50 µM
- MIC [23]: 12.5 µM (≈ 32.3 µg/mL)
- MIC [24]: 1.5 µM (≈ 3.87 µg/mL)
- MIC [25]: 6 µM (≈ 15.5 µg/mL)
- MIC [26]: 50 µM (≈ 129 µg/mL)
- MIC [27]: ≥ 50 µM
- MIC [28]: 6 µM (≈ 15.5 µg/mL)
- MIC [29]: 6 µM (≈ 15.5 µg/mL)
- MIC [18]: 25 µM (≈ 64.6 µg/mL)
Structure (SMILES): CC[C@H](C)[C@H](NC(=O)[C@@H](N)CCCN=C(N)N)C(=O)N[C@@H](CCCN=C(N)N)C(=O)N[C@@H](Cc1ccccc1)C(=O)N1CCC[C@H]1C(=O)N[C@@H](Cc1c[nH]c2ccccc12)C(=O)N1CCC[C@H]1C(=O)N[C@@H](Cc1c[nH]c2ccccc12)C(=O)N[C@@H](CCCN=C(N)N)C(=O)N[C@@H](Cc1c[nH]c2ccccc12)C(=O)N1CCC[C@H]1C(=O)N[C@@H](Cc1c[nH]c2ccccc12)C(=O)N[C@@H](Cc1c[nH]c2ccccc12)C(=O)N1CCC[C@H]1C(=O)N[C@@H](CCCN=C(N)N)C(=O)N[C@@H](Cc1ccccc1)C(=O)N[C@@H](CCCN=C(N)N)C(=O)NCC(=O)O [RIRFPWPWRWPWWPRFRG]

- MIC [30]: 1 µM (≈ 1.42 µg/mL)
- MIC [3]: 6 µM (≈ 8.53 µg/mL)
- MIC [31]: 10 µM (≈ 14.2 µg/mL)
- MIC [4]: 3 µM (≈ 4.27 µg/mL)
- MIC [32]: 3 µM (≈ 4.27 µg/mL)
- MIC [33]: 3 µM (≈ 4.27 µg/mL)
- MIC [5]: 25 µM (≈ 35.5 µg/mL)
- MIC [34]: 3 µM (≈ 4.27 µg/mL)
- MIC [7]: 6 µM (≈ 8.53 µg/mL)
- MIC [35]: 3.12 µM (≈ 4.44 µg/mL)
- MIC [10]: 3 µM (≈ 4.27 µg/mL)
- MIC [36]: 3 µM (≈ 4.27 µg/mL)
- MIC [37]: 3.12 µM (≈ 4.44 µg/mL)
- MIC [38]: 3 µM (≈ 4.27 µg/mL)
- MIC [39]: 3.12 µM (≈ 4.44 µg/mL)
- MIC [40]: 3 µM (≈ 4.27 µg/mL)
- MIC [41]: 3 µM (≈ 4.27 µg/mL)
- MIC [42]: 3 µM (≈ 4.27 µg/mL)
- MIC [43]: 6 µM (≈ 8.53 µg/mL)
- MIC [18]: 6 µM (≈ 8.53 µg/mL)
- MIC [44]: 3.12 µM (≈ 4.44 µg/mL)
Structure (SMILES): CC[C@H](C)[C@H](NC(=O)CNC(=O)[C@H](CCCCN)NC(=O)[C@H](CC(C)C)NC(=O)[C@@H](N)Cc1ccccc1)C(=O)N[C@H](C(=O)NCC(=O)N[C@@H](CCSC)C(=O)N[C@@H](CC(C)C)C(=O)NCC(=O)N[C@@H](CCCCN)C(=O)N[C@@H](CC(C)C)C(=O)N[C@@H](Cc1ccccc1)C(N)=O)C(C)C [FLKGIVGMLGKLF]

- MIC [45]: 18.4 µM (≈ 32 µg/mL)
- MIC [46]: 18.4 µM (≈ 32 µg/mL)
Structure (SMILES): CC[C@H](C)[C@H](NC(=O)CNC(=O)[C@H](CC(C)C)NC(=O)[C@H](Cc1ccccc1)NC(=O)[C@H](CC(C)C)NC(=O)[C@H](CCCCN)NC(=O)[C@H](Cc1c[nH]c2ccccc12)NC(=O)[C@@H](N)CCCCN)C(=O)N[C@@H](CC(C)C)C(=O)N[C@@H](C)C(=O)N[C@H](C(=O)N[C@@H](CC(C)C)C(=O)N[C@@H](CCCCN)C(=O)N[C@H](C(=O)N[C@@H](CC(C)C)C(=O)O)C(C)C)C(C)C [KWKLFLGILAVLKVL]
